Target: T1, recombinant human Flag-tagged PARP7 (amino acids 456-657) (Homo sapiens, UniProt Q7Z3E1)
T1 construct: recombinant human Flag-tagged PARP7 (amino acids 456-657)
T1 sequence (Q7Z3E1 456-657): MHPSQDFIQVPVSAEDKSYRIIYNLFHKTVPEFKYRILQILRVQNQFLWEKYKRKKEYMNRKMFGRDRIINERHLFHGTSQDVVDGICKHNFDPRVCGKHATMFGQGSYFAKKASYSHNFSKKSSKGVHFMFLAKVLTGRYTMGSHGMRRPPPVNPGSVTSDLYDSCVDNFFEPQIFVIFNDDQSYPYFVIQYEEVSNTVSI
Assay: PARP7 biochemical DELFIA assay (auto-MARylation)
Details: DELFIA readout, IC50 class
Procedure: A suitable assay may be conducted using 10-30 nM PARP7 (amino acids 456-657), 2 μM biotin-NAD assay solution in 20 mM HEPES (pH 7.5), 100 mM NaCl, 2 mM DTT, 0.1% BSA (w/v), 0.02% Tween (v/v) assay buffer. MARylation may take place for 2-3 h at room temperature and may be detected using a dissociation-enhanced lanthanide fluorescence immunoassay (DELFIA) readout. This assay format has been recently utilised for screening for modulators of PARP7 and other MonoPARP enzymes ([…]. et al. Forced Self-Modification Assays as a Strategy to Screen MonoPARP Enzymes. SLAS Discovery. 25; 241-252, (2020)). A particularly suitable assay is described in the Examples below. Optiplate HB 384-well plates were coated with anti-FLAG antibody, supplied as a 4 mg/ml solution, using a Na2CO3/HCO3 coating buffer at pH 9.6, overnight at 4° C., in order to achieve a final immobilisation per well of 0.3 μg. Wells were then washed 3× in coating wash buffer (PBS/0.05% Tween (v/v)), blocked with 2% BSA (w/v) in coating wash buffer and washed 3 further times prior to assay. For the assay 20 μl of 12.5-37.5 nM recombinant human Flag-tagged PARP7 (amino acids 456-657) was added to each well of the 384-well plate for 30 min at room temperature. 50 nl of test compound in DMSO was added using pintool technology and plates were incubated for a further 30 min at room temperature. 5 μl of 15 μM biotin-NAD^+ assay solution in 20 mM HEPES (pH 7.5), 100 mM NaCl, 2 mM DTT, 0.1% BSA (w/v), 0.02% Tween (v/v) assay buffer was then added and MARylation proceeded for 2-3 h at room temperature prior to the addition of 5 μl of 12 mM NAD^+ quenching solution. After 30 min at room temperature, assay solution was removed and following washing 5 times, 100 μl of a 1:1000 dilution of DELFIA Eu-N1 Streptavidin reagent was added. Plates were then incubated for 30 min at room temperature. Reaction mixture was removed and plates washed 5 times prior to the addition of 25 μl DELFIA enhancement solution. Following incubation for 30 min at room temperature, fluorescence was read on either an Envision or Pherastar FS (Ex337 nm, Em620 nm).

SMILES | IC50
O=C(CCOCCn1nc(C(F)(F)F)c2c(=O)[nH]ncc21)N1CCN(c2ccc(C3CC3)cn2)CC1 [Compound 300] | ≤ 100 nM
O=C(CCOCCc1cc(F)cc2c(=O)[nH]ncc12)N1CCN(c2ncc(C(F)(F)F)cn2)CC1 [Compound 82] | ≤ 100 nM
Cc1nn(C(C)COCCC(=O)N2CCN(c3ccc(C#N)cn3)CC2)c2cn[nH]c(=O)c12 (stereo not drawn) [Compound 244] | ≤ 100 nM
N#Cc1ccc(N2CCN(C(=O)c3cccc(Cc4cc(Cl)cc5c(=O)[nH]ncc45)c3)CC2)nc1 [Compound 57] | ≤ 100 nM
O=C1CCc2cnc(N3CCN(C(=O)CCOCCc4cccc5c(=O)[nH]ncc45)CC3)nc2N1 [Compound 216] | ≤ 100 nM
O=C1NCNc2c(CCOCCC(=O)N3CCN(c4ncc(C(F)(F)F)cn4)CC3)cccc21 [Compound 48] | ≤ 100 nM
CC(COCCC(=O)N1CCN(c2ccc(C#N)cn2)CC1)N1CCCc2c1cn[nH]c2=O (stereo not drawn) [Compound 62] | 100 to 1000 nM
CCC(COCCC(=O)N1CCN(c2ncc(C(F)(F)F)cn2)CC1)n1cc(C(F)(F)F)c2c(=O)[nH]ncc21 (single isomer, unassigned) [Compound 339] | ≤ 100 nM
Cc1c(C)n(C(C)COCCC(=O)N2CCN(c3ncc(C(F)(F)F)cn3)CC2)c2cn[nH]c(=O)c12 (single isomer, unassigned) [Compound 366] | ≤ 100 nM
O=C(COCCc1cccc2c(=O)[nH]ncc12)NC1CCN(c2ncc(C(F)(F)F)cn2)CC1 [Compound 107] | ≤ 100 nM
CC(COCCC(=O)N1CCN(c2ncc(F)cn2)CC1)n1nc(C(F)(F)F)c2c(=O)[nH]ncc21 (single isomer, unassigned) [Compound 248, 1-(1-(3-(4-(5-fluoropyrimidin-2-yl)piperazin-1-yl)-3-oxopropoxy)propan-2-yl)-3-(trifluoromethyl)-1,5-dihydro-4H-pyrazolo[3,4-d]pyridazin-4-one] | ≤ 100 nM
CC(COCCC(=O)N1CCN(c2ncc(F)cc2F)CC1)n1nc(C(F)(F)F)c2c(=O)[nH]ncc21 (stereo not drawn) [Compound 349] | ≤ 100 nM
N#Cc1ccc(N2CCN(C(=O)CCOCCc3cc(C#N)cc4c(=O)[nH]ncc34)CC2)nc1 [Compound 111] | 100 to 1000 nM
CC(COCCC(=O)N1CCN(c2ncc(C(F)(F)F)cn2)CC1)c1cc(Cl)cc2c(=O)[nH]ncc12 (stereo not drawn) [Compound 163] | ≤ 100 nM
Cc1nn(C(C)COCCC(=O)N2CCN(c3ncc(C(F)(F)F)cn3)CC2)c2cn[nH]c(=O)c12 (single isomer, unassigned) [Compound 245] | ≤ 100 nM
O=C(CCOCCn1c(C(F)(F)F)nc2c(=O)[nH]ncc21)N1CCN(c2ncc(C(F)(F)F)cn2)CC1 [Compound 184] | 100 to 1000 nM
N#Cc1ccc(N2CCN(C(=O)c3cccc(Cn4ncc5c(=O)[nH]ncc54)c3)CC2)nc1 [Compound 24] | 100 to 1000 nM
N#Cc1ccc(N2CCN(C(=O)c3cccc(Cc4cccc5c(=O)[nH]c(=O)[nH]c45)c3)CC2)nc1 [Compound 18] | 100 to 1000 nM
CC1(C)CN(C(=O)CCOCCn2cc(C(F)(F)F)c3c(=O)[nH]ncc32)CCN1c1ccc(C(F)(F)F)cn1 [Compound 237] | ≤ 100 nM
O=C1NCNc2c(OCCOCC(=O)N3CCN(c4ncc(C(F)(F)F)cn4)CC3)cccc21 [Compound 47] | 1000 to 10000 nM
CC1CCc2c(cn[nH]c2=O)N1CCOCCC(=O)N1CCN(c2ncc(C(F)(F)F)cn2)CC1 (stereo not drawn) [Compound 126] | 100 to 1000 nM
Cc1nn(CCOCCC(=O)N2CCN(c3ncc(C(F)(F)F)cn3)CC2)c2cn[nH]c(=O)c12 [Compound 127] | ≤ 100 nM
CC(COCCC(=O)N1CCN(c2ccc(OC(F)(F)F)cn2)CC1)n1nc(C(F)(F)F)c2c(=O)[nH]ncc21 (single isomer, unassigned) [Compound 253] | ≤ 100 nM
O=C(CCOCCc1cccc2c(=O)[nH]ncc12)N1CCC(c2nc3ccccc3s2)CC1 [Compound 140] | ≤ 100 nM
CC(COCCC(=O)N1CCN(c2ncc(C(F)(F)F)cn2)CC1)n1cc(C(F)(F)F)c2c(=O)[nH]ncc21 (single isomer, unassigned) [Compound 224, 1-(1-(3-oxo-3-(4-(5-(trifluoromethyl)pyrimidin-2-yl)piperazin-1-yl)propoxy)propan-2-yl)-3-(trifluoromethyl)-1,5-dihydro-4H-pyrrolo[2,3-d]pyridazin-4-one] | ≤ 100 nM
Cc1cc(CCOCCC(=O)N2CCN(c3ncc(C(F)(F)F)cn3)CC2)n2c1C(=O)NCC2 [Compound 134] | ≤ 100 nM

The remaining lines, values ahead:

IC50 | SMILES
≤ 100 nM | CC(COCCC(=O)N1CCN(c2ncc(C#N)cn2)CC1)n1cc(C(F)(F)F)c2c(=O)[nH]ncc21 (single isomer, unassigned) [Compound 464]
≤ 100 nM | CC(COCCC(=O)N1CCN(c2ncc(C(F)(F)F)cn2)CC1)n1cc(C(F)F)c2c(=O)[nH]ncc21 (single isomer, unassigned) [Compound 396, 3-(difluoromethyl)-1-(1-(3-oxo-3-(4-(5-(trifluoromethyl)pyrimidin-2-yl)piperazin-1-yl)propoxy)propan-2-yl)-1,5-dihydro-4H-pyrrolo[2,3-d]pyridazin-4-one]
≤ 100 nM | [2H]C(C)(COCCC(=O)N1CCN(c2ncc(C(F)(F)F)cn2)CC1)n1cc(C(F)(F)F)c2c(=O)[nH]ncc21 (single isomer, unassigned) [Compound 476, 1-(1-(3-oxo-3-(4-(5-(trifluoromethyl)pyrimidin-2-yl)piperazin-1-yl)propoxy)propan-2-yl-2-d)-3-(trifluoromethyl)-1,5-dihydro-4H-pyrrolo[2,3-d]pyridazin-4-one]
≤ 100 nM | O=C(CCOCCn1nc(C(F)(F)F)c2c(=O)[nH]ncc21)N1CCN(c2nnc(C(F)(F)F)o2)CC1 [Compound 434]
≤ 100 nM | CC(COCCC(=O)N1CCN(c2ncc(C(F)(F)F)cn2)CC1)n1nc(C(F)(F)F)c2c(=O)[nH]ccc21 (stereo not drawn) [Compound 389]
≤ 100 nM | O=C(CCOCCn1nc(C(F)(F)F)c2c(=O)[nH]ncc21)N1CCN(c2ncc3c(n2)NCCC3)CC1 [Compound 394]
≤ 100 nM | CC(COCCC(=O)N1CCN(c2ccc(C(F)(F)F)cn2)CC1)n1cc(C(F)(F)F)c2c(=O)[nH]ncc21 (stereo not drawn) [Compound 377]
≤ 100 nM | O=C(CCOCCc1c(Cl)ccc2c(=O)[nH]ncc12)N1CCN(c2ncc(C(F)(F)F)cn2)CC1 [Compound 410]
≤ 100 nM | CC(COCCC(=O)N1CCN(c2ncc(F)cn2)CC1)n1cc(C(F)(F)F)c2c(=O)[nH]ncc21 (single isomer, unassigned) [Compound 468]
≤ 100 nM | CC(COCCC(=O)N1CCN(c2ncc(C(C)(C)C)cn2)CC1)n1cc(C(F)(F)F)c2c(=O)[nH]ncc21 (single isomer, unassigned) [Compound 499]
≤ 100 nM | CC(COCCC(=O)N1CCN(c2ncc(C(F)(F)F)cn2)CC1)n1nc(C(F)(F)F)c2c(=O)[nH]ccc21 (stereo not drawn) [Compound 388]
≤ 100 nM | CC(COCC(=O)N(C)C1CCN(c2ncc(C(F)(F)F)cn2)CC1)n1nc(C(F)(F)F)c2c(=O)[nH]ncc21 (single isomer, unassigned) [Compound 460, N-methyl-2-(2-(4-oxo-3-(trifluoromethyl)-4,5-dihydro-1H-pyrazolo[3,4-d]pyridazin-1-yl)propoxy)-N-(1-(5-(trifluoromethyl)pyrimidin-2-yl)piperidin-4-yl) acetamide]
≤ 100 nM | Cc1cn(CCOCCC(=O)N2CCN(c3ncc(C(F)(F)F)cn3)CC2)c2[nH]c(=O)[nH]c(=O)c12 [Compound 404]

— patent US20240217968A1, “PHARMACEUTICAL COMPOUND” (DUKE STREET BIO LIMITED, priority 2021, published 2024)
